Measurements reported in the supplement of paper PMC6045584.
± gives the standard deviation of the averaged measurements.

Experiments:
SNX-5422 = compound: CC1(C)CC(=O)c2c(C(F)(F)F)nn(-c3ccc(C(N)=O)c(N[C@H]4CC[C@H](OC(=O)CN)CC4)c3)c2C1 [SNX-5422]; assay: surviving fraction relative to DMSO-only wells; higher = less growth inhibition; conditions: exposure time: 5 days
Method in brief: (§1)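 In 384-well plates, 250–500 log-phase tumour cells per well were given 24 hours before five days of continuous exposure to inhibitors at 0.5, 1, 5, 10, 50, 100, 500 and 1000 nM. Surviving fraction is luminescence from CellTiter-Glo, normalised to the median of wells containing DMSO alone. Reading took place after 10 minutes at room temperature.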

TIOGUANINE = compound: Nc1nc2[nH]cnc2c(=S)[nH]1 [TIOGUANINE]; assay: as above; conditions: exposure time: 5 days
Method in brief: as §1

| Test System | surviving fraction (SNX-5422; 0.5 nM) | surviving fraction (SNX-5422; 1 nM) | surviving fraction (SNX-5422; 5 nM) | surviving fraction (SNX-5422; 10 nM) | surviving fraction (SNX-5422; 50 nM) | surviving fraction (SNX-5422; 100 nM) | surviving fraction (SNX-5422; 500 nM) | surviving fraction (SNX-5422; 1000 nM) | surviving fraction (TIOGUANINE; 0.5 nM) | surviving fraction (TIOGUANINE; 1 nM) | surviving fraction (TIOGUANINE; 5 nM) | surviving fraction (TIOGUANINE; 10 nM) | surviving fraction (TIOGUANINE; 50 nM) | surviving fraction (TIOGUANINE; 100 nM) | surviving fraction (TIOGUANINE; 500 nM) | surviving fraction (TIOGUANINE; 1000 nM) |
| --- | --- | --- | --- | --- | --- | --- | --- | --- | --- | --- | --- | --- | --- | --- | --- | --- |
| 22RV1 PROSTATE | 1.06 ± 0.047 | 1.11 ± 0.056 | 1.06 ± 0.037 | 0.941 ± 0.056 | 0.169 ± 0.018 | 0.13 ± 0.022 | 0.0763 ± 0.014 | 0.0823 ± 0.0091 | 0.97 ± 0.042 | 0.971 ± 0.042 | 0.99 ± 0.049 | 0.999 ± 0.0061 | 1.06 ± 0.067 | 0.99 ± 0.039 | 0.988 ± 0.079 | 0.94 ± 0.042 |
| 93VU HEADNECK | 1.14 ± 0.02 | 1.15 ± 0.029 | 1.31 ± 0.069 | 1.24 ± 0.085 | 0.648 ± 0.074 | 0.199 ± 0.041 | 0.0953 ± 0.0047 | 0.0957 ± 0.012 | 0.831 ± 0.039 | 0.872 ± 0.088 | 1.03 ± 0.082 | 1.08 ± 0.094 | 1.06 ± 0.015 | 1.06 ± 0.11 | 0.798 ± 0.042 | 0.768 ± 0.081 |
| 143B BONE | 1 ± 0.056 | 0.985 ± 0.0099 | 1.02 ± 0.037 | 0.996 ± 0.0057 | 0.365 ± 0.016 | 0.149 ± 0.0028 | 0.087 ± 0.0071 | 0.091 ± 0.011 | 0.986 ± 0.015 | 1.01 ± 0.018 | 0.993 ± 0.025 | 0.999 ± 0.0071 | 0.9995 ± 0.0092 | 1.01 ± 0.028 | 0.904 ± 0.0014 | 0.707 ± 0.041 |
| A549 LUNG | 1 ± 0.046 | 1.01 ± 0.053 | 1.01 ± 0.043 | 0.99 ± 0.045 | 0.895 ± 0.057 | 0.349 ± 0.046 | 0.0613 ± 0.0031 | 0.058 ± 0.0095 | 0.946 ± 0.045 | 0.955 ± 0.025 | 0.96 ± 0.046 | 0.952 ± 0.051 | 0.976 ± 0.045 | 0.999 ± 0.064 | 1.01 ± 0.038 | 0.973 ± 0.056 |
| ASKA SYNOVIAL | 0.957 ± 0.041 | 0.967 ± 0.015 | 0.963 ± 0.035 | 0.883 ± 0.062 | 0.461 ± 0.05 | 0.233 ± 0.01 | 0.231 ± 0.0067 | 0.293 ± 0.0035 | 1.07 ± 0.051 | 1.09 ± 0.058 | 1.13 ± 0.08 | 1.08 ± 0.032 | 1.1 ± 0.068 | 1.073 ± 0.007 | 1.07 ± 0.044 | 1.03 ± 0.011 |
| BT20 BREAST | 1.14 ± 0.047 | 1.1 ± 0.088 | 1.14 ± 0.05 | 1.094 ± 0.0083 | 0.738 ± 0.039 | 0.411 ± 0.063 | 0.329 ± 0.046 | 0.298 ± 0.052 | 1.02 ± 0.028 | 1.05 ± 0.12 | 1.07 ± 0.033 | 1.03 ± 0.048 | 1.12 ± 0.068 | 1.08 ± 0.081 | 0.958 ± 0.12 | 0.969 ± 0.18 |
| BT549 BREAST | 1.1 ± 0.22 | 0.861 ± 0.11 | 1.19 ± 0.077 | 1.05 ± 0.11 | 0.216 ± 0.02 | 0.187 ± 0.059 | 0.0503 ± 0.011 | 0.0473 ± 0.0074 | 1.04 ± 0.17 | 1.05 ± 0.22 | 1.09 ± 0.12 | 1.12 ± 0.11 | 1.17 ± 0.14 | 0.917 ± 0.35 | 0.86 ± 0.42 | 0.996 ± 0.24 |
| CAL51 BREAST | 0.902 ± 0.075 | 0.973 ± 0.016 | 1.02 ± 0.036 | 1 ± 0.034 | 0.261 ± 0.036 | 0.077 ± 0.0036 | 0.0237 ± 0.00058 | 0.0263 ± 0.0015 | 0.984 ± 0.03 | 0.965 ± 0.017 | 0.999 ± 0.018 | 1 ± 0.031 | 1.03 ± 0.049 | 1.06 ± 0.038 | 0.992 ± 0.051 | 0.979 ± 0.026 |
| CAL72 BONE | 1.033 ± 0.0045 | 1.06 ± 0.022 | 1.077 ± 0.01 | 1.08 ± 0.046 | 0.208 ± 0.027 | 0.294 ± 0.038 | 0.0867 ± 0.014 | 0.0977 ± 0.0057 | 1.08 ± 0.029 | 1.07 ± 0.027 | 1.09 ± 0.073 | 1.1 ± 0.056 | 1.14 ± 0.034 | 1.124 ± 0.0085 | 1.13 ± 0.029 | 1.13 ± 0.043 |
| CAL120 BREAST | 0.993 ± 0.019 | 0.946 ± 0.034 | 0.962 ± 0.057 | 0.875 ± 0.057 | 0.149 ± 0.013 | 0.132 ± 0.0094 | 0.083 ± 0.0092 | 0.0862 ± 0.0052 | 0.912 ± 0.028 | 0.943 ± 0.014 | 0.9412 ± 0.0032 | 0.919 ± 0.028 | 0.95 ± 0.021 | 0.939 ± 0.02 | 0.88 ± 0.035 | 0.826 ± 0.036 |
| CASKI CERVIX | 0.913 ± 0.016 | 0.937 ± 0.021 | 0.932 ± 0.049 | 0.829 ± 0.074 | 0.119 ± 0.02 | 0.0603 ± 0.0035 | 0.031 ± 0.0036 | 0.033 | 0.902 ± 0.091 | 0.902 ± 0.056 | 0.934 ± 0.029 | 0.952 ± 0.032 | 0.9923 ± 0.0092 | 1.01 ± 0.014 | 0.962 ± 0.037 | 0.839 ± 0.072 |
| CHLA90 AUTONOMIC GANGLIA | 0.995 ± 0.028 | 1.07 ± 0.075 | 1.04 ± 0.041 | 1.026 ± 0.0046 | 0.251 ± 0.028 | 0.227 ± 0.029 | 0.129 ± 0.0096 | 0.141 ± 0.0081 | 0.95 ± 0.029 | 0.99 ± 0.04 | 1 ± 0.038 | 0.948 ± 0.034 | 0.96 ± 0.043 | 0.913 ± 0.08 | 0.88 ± 0.057 | 0.912 ± 0.048 |
| CME SYNOVIAL | 1.05 ± 0.06 | 1.21 ± 0.062 | 1.23 ± 0.074 | 1.35 ± 0.077 | 1.01 ± 0.18 | 0.276 ± 0.0067 | 0.287 ± 0.011 | 0.365 ± 0.034 | 1.07 ± 0.067 | 1.22 ± 0.12 | 1.16 ± 0.051 | 1.22 ± 0.03 | 1.29 ± 0.021 | 1.32 ± 0.19 | 1.24 ± 0.054 | 1.08 ± 0.18 |
| COLO320DM LARGE INTESTINE | 1.11 ± 0.05 | 1.25 ± 0.046 | 1.24 ± 0.27 | 1.13 ± 0.12 | 0.581 ± 0.029 | 0.309 ± 0.035 | 0.113 ± 0.0058 | 0.103 ± 0.009 | 1.13 ± 0.03 | 1.1 ± 0.056 | 1.003 ± 0.0076 | 1.09 ± 0.067 | 1.03 ± 0.019 | 1.09 ± 0.049 | 1.078 ± 0.0053 | 1.04 ± 0.049 |
| DU4475 BREAST | 1.07 ± 0.29 | 0.979 ± 0.18 | 1.04 ± 0.17 | 1.06 ± 0.26 | 0.03 ± 0.013 | 0.0313 ± 0.0065 | 0.029 ± 0.0052 | 0.0317 ± 0.0072 | 0.746 ± 0.054 | 1 ± 0.31 | 0.784 ± 0.2 | 0.798 ± 0.17 | 0.687 ± 0.23 | 0.743 ± 0.24 | 0.721 ± 0.4 | 0.704 ± 0.29 |
| G292 BONE | 1.01 ± 0.014 | 0.952 ± 0.055 | 1.02 ± 0.033 | 0.994 ± 0.034 | 0.366 ± 0.017 | 0.287 ± 0.028 | 0.081 ± 0.0089 | 0.0853 ± 0.012 | 0.964 ± 0.034 | 0.998 ± 0.045 | 1 ± 0.021 | 0.984 ± 0.036 | 1.01 ± 0.023 | 1.02 ± 0.016 | 0.948 ± 0.011 | 0.949 ± 0.035 |
| H23 LUNG | 1.01 ± 0.051 | 1.04 ± 0.023 | 1.06 ± 0.057 | 1.04 ± 0.052 | 0.43 ± 0.0053 | 0.268 ± 0.013 | 0.037 ± 0.0027 | 0.0373 ± 0.0035 | 0.962 ± 0.017 | 0.966 ± 0.044 | 0.974 ± 0.024 | 0.993 ± 0.046 | 0.997 ± 0.058 | 1.04 ± 0.03 | 0.964 ± 0.02 | 0.966 ± 0.025 |
| HCC38 BREAST | 1.19 ± 0.18 | 1.09 ± 0.094 | 1.06 ± 0.19 | 1.01 ± 0.15 | 0.219 ± 0.053 | 0.26 ± 0.027 | 0.0927 ± 0.0074 | 0.0897 ± 0.017 | 1.15 ± 0.31 | 1.3 ± 0.38 | 1.15 ± 0.29 | 1.28 ± 0.099 | 1.1 ± 0.24 | 1.08 ± 0.062 | 1.08 ± 0.32 | 0.95 ± 0.15 |
| HCC70 BREAST | 1.07 ± 0.05 | 1.142 ± 0.0055 | 1.19 ± 0.043 | 1.17 ± 0.048 | 0.668 ± 0.11 | 0.133 ± 0.023 | 0.127 ± 0.021 | 0.113 ± 0.016 | 1.05 ± 0.03 | 0.896 ± 0.043 | 1.03 ± 0.069 | 1 ± 0.013 | 1.04 ± 0.13 | 1.02 ± 0.052 | 1.04 ± 0.059 | 1.04 ± 0.1 |
| HCC78 LUNG | 0.808 ± 0.27 | 1.2 ± 0.38 | 1.03 ± 0.17 | 1 ± 0.079 | 0.0547 ± 0.01 | 0.113 ± 0.049 | 0.0627 ± 0.016 | 0.088 ± 0.007 | 0.726 ± 0.091 | 0.781 ± 0.21 | 0.854 ± 0.13 | 0.685 ± 0.23 | 0.866 ± 0.086 | 0.853 ± 0.059 | 0.743 ± 0.2 | 0.773 ± 0.088 |
